{"source": "patent US20240294570A1", "about": "“ENZYMATICALLY FORMING INTRANUCLEAR PEPTIDE ASSEMBLIES FOR SELECTIVELY KILLING INDUCED PLURIPOTENT STEM CELLS” (BRANDEIS UNIVERSITY, priority 2021, published 2024)", "key": {"[1]": {"experiment": "Degradation in HS-5 cell lysate (LC-MS)", "settings": "200 μM, 2 h of incubation"}, "iPSCs": {"tested_on": "iPSCs", "experiment": "CLSM imaging of peptide assemblies in iPSCs", "type": "cell-based, human", "description": "Confocal Laser Scanning Microscopy (CLSM) Imaging: For live cell imaging, cells in exponential growth phase were seeded in a confocal dish (3.5 cm) at 1.0×10^5 cells per dish and then incubated in incubator for 24 h. We removed culture medium, and added fresh medium containing precursors for different time points. After removing the medium and washing the cells with live cell imaging solution (2 mL×2), the cells were used for CLSM imaging. For time-dependent live cell imaging, cells in exponential growth phase were seeded in a confocal dish (3.5 cm) at 1.0×10^5 cells per dish and then incubated in incubator for 24 h. After removing culture medium, we treated the cells with 1 mL of Hoechst 33342 (1 μg mL^−1) for 10 minutes. After being washed with culture medium (2 mL×2), the cells were incubated with fresh medium containing precursor 5 in a Tokai Hit stage top incubator (STXF-WSKMX-SET) to be used for CLSM imaging. All the CLSM images were obtained using Zeiss LSM 880 confocal microscopy at the lens of 63× with oil. The lasers used are 405 nm and 488 nm.\nBecause the fluorescence of NBD increases drastically from unassembled to assembled state, confocal laser scanning microscopy (CLSM) was suitable to reveal the cellular location of the peptide assemblies formed after dephosphorylation catalyzed by ALP. […] The blackness in nuclei overlaps well with the strong fluorescence. […] The results confirms that the nucleus-targeting mainly originates from the ALP catalyzed dephosphorylation.\nTo trace the dynamics of the formation and distribution of 5 inside iPSC cells, time-lapse CLSM was also used to image the changes of the fluorescence in the iPSCs incubated by 5 (400 μM). Using one cell as a representative case, after 6 minutes incubation fluorescent puncta appear on the membrane, likely originating from the aggregates of assemblies of 5 and those of 6 generated by the dephosphorylation catalyzed by ALP. […] After 24 minutes incubation, fluorescence starts to grow in the cytoplasm. Considering the LLLLY motif in SEQ ID NO: 2 constitutes the transmembrane domains of 18 human membrane proteins, it is possible that the affinity of 5 or 6 to membrane allows the assemblies of the mixture of 5 and 6 to interact with cellular membranes, which then facilitates nuclear localization. At about 28 minutes of incubation, fluorescence appears in the nucleus. Moreover, the nuclei shrink after the assemblies emerge in the nuclei. In addition, the nuclei also show nuclear blebbing (Stephens et al., “Chromatin Histone Modifications and Rigidity Affect Nuclear Morphology Independent of Lamins,” Mol. Biol. Cell 29(2):220-233 (2018), which is hereby incorporated by reference in its entirety). The shrinkage of nuclei and nuclear blebbing likely associate with iPSC death. To further examine the dynamics of EISA-formed peptide assemblies in iPSCs over different time, the increase of fluorescence in two cells over 2 hours was monitored; their nuclei, A and B, are shown in FIG. 10A. […] The mean fluorescent intensity in Nucleus A starts to increase at 28 minutes and levels off after 110 minutes. For Nucleus B, the mean fluorescent intensity keeps increasing from 38 minutes. The increases of the fluorescence in the nuclei and nucleoli are synchronous. […] The assemblies inside the nuclei or near nuclear membrane induce nuclear blebbing and shrinkage of nuclei, which likely contributes to the cell death."}, "[2]": {"experiment": "Critical micelle concentration (CMC) measurement with pyrene probe", "type": "physicochemical", "description": "Critical Micelle Concentration ((MC) Measurement: The CMCs were determined using pyrene as the fluorescent probe. Different concentrations of compounds were prepared in pyrene-saturate solutions. The fluorescence spectra of pyrene solutions with different concentration compounds were obtained. The intensity ratio of 378 nm/393 nm (I378/I393) was determined by a Synergy H1 hybrid multi-mode microplate reader. Plot I378/I393 against the concentrations of compounds. The concentration at the turning point is the CMC."}, "ALP": {"tested_on": "ALP", "experiment": "Dephosphorylation rate measurement (LC-MS)", "description": "The reaction mixtures were analyzed with LC-MS.\nThus, the conversion of the phosphopentapeptides to their corresponding peptides was examined over time."}, "HEK293 cells": {"tested_on": "HEK293 cells", "experiment": "Cytotoxicity against HEK293 cells (MTT assay)", "type": "cell-based", "settings": "400 μM, 2 h", "description": "Cell Culture: Human induced pluripotent stem cell line A21 was generated from human normal dermal fibroblasts by using the StemRNA™-NM Reprogramming kit (Stemgent, Cat #00-0076). hiPSCs were routinely cultured and passaged on 6-well plates coated with 0.25 μg/cm^2 iMatrix-511 (Recombinant Laminin-511) (ReproCell) with NutriStem XF/FFTM medium (Biological Industries). HS-5 cell line and HEK293 cell line were purchased from American Type Culture Collection (ATCC, USA). HS-5 cells were cultured in Dulbecco's Modified Eagle Medium (DMEM) supplemented with 10% fetal bovine serum (FBS), 100 U/mL penicillin and 100 μg/mL streptomycin. HEK293 cells were cultured in Minimal Essential Medium (MEM) supplemented with 10% fetal bovine serum (FBS), 100 U/mL penicillin and 100 μg/mL streptomycin. All cells were maintained at 37° C. in a humidified atmosphere of 5% CO2.\nCell Viability of Differentiated Cells: Cytotoxicity against HS-5 cells and HEK293 cells was determined by using MTT assay. […] The absorbance of each well at 595 nm was measured by a DTX880 Multimode Detector. The results were calculated as cell viability percentage relative to untreated cells. […]"}, "[3]": {"settings": "400 μM, time-lapse CLSM, one representative cell"}}, "note": "Non-standard residues stand in square brackets, D forms with d. Residues, ends and D or L forms follow the SMILES beside them. *: point of attachment. pY = N[C@@H](Cc1ccc(OP(=O)(O)O)cc1)C(=O)O; NBD = O=[N+]([O-])c1ccc(*)c2nonc12; βAla = NCCC(=O)O", "data": [{"smiles": "CC(C)C[C@H](NC(=O)CCNc1ccc([N+](=O)[O-])c2nonc12)C(=O)N[C@@H](CC(C)C)C(=O)N[C@@H](CC(C)C)C(=O)N[C@@H](CC(C)C)C(=O)N[C@@H](Cc1ccc(OP(=O)(O)O)cc1)C(=O)O", "note": "[compound 5, NBD-βA-LLLLpY] ({NBD-βAla}-LLLL[pY]-OH)", "values": [{"measurement": "stability of 5 in HS-5 lysate", "setting": "[1]", "result": "All of 5 disappears"}, {"measurement": "NBD fluorescence in iPSCs", "setting": "iPSCs; 200 μM", "result": "hardly any fluorescence in the cells"}, {"measurement": "NBD fluorescence in iPSCs with ALP inhibitor", "setting": "iPSCs; 400 μM plus DQB 5 μM, 2 hours", "result": "little fluorescence in cells"}, {"measurement": "NBD fluorescence in iPSCs (location of peptide assemblies)", "setting": "iPSCs; 400 μM, 2 hours", "result": "strong NBD fluorescence in nuclei"}, {"measurement": "incubation time at which fluorescence appears in the nucleus", "setting": "iPSCs; [3]", "result": "about 28 minutes"}, {"measurement": "incubation time at which fluorescence starts to grow in the cytoplasm", "setting": "iPSCs; [3]", "result": 24, "unit": "min"}, {"measurement": "incubation time at which fluorescent puncta appear on the membrane", "setting": "iPSCs; [3]", "result": 6, "unit": "min"}, {"measurement": "NBD fluorescence in iPSC nuclei", "setting": "iPSCs; 400 μM, treatment time 1 hour", "result": "weaker fluorescence"}, {"measurement": "critical micelle concentration (CMC)", "setting": "[2]", "result": 86.1, "unit": "µM"}, {"measurement": "fraction hydrolyzed by ALP", "setting": "ALP; 100 μM, 0.1 U/mL ALP, time point 40 minutes", "result": "about 24%"}, {"measurement": "final dephosphorylation ratio", "setting": "ALP; 400 μM, 0.1 U/mL ALP", "result": 69.1, "unit": "%"}, {"measurement": "dephosphorylation ratio", "setting": "ALP; 400 μM, 0.5 U/mL ALP, after 5 hours of incubation", "result": 93.8, "unit": "%"}, {"measurement": "fraction turned into 6", "setting": "ALP; 0.1 U/mL ALP, after 1 hour of incubation", "result": 32.7, "unit": "%"}, {"measurement": "fraction turned into 6", "setting": "ALP; 0.1 U/mL ALP, after 2 hours of incubation", "result": 49.6, "unit": "%"}, {"measurement": "half-life at 100 μM", "setting": "ALP; alkaline phosphatase (ALP) in PBS, half-life of dephosphorylation, 100 μM, 0.5 U/mL ALP", "result": 27.3, "unit": "min"}, {"measurement": "half-life at 200 μM", "setting": "ALP; alkaline phosphatase (ALP) in PBS, half-life of dephosphorylation, 200 μM, 0.5 U/mL ALP", "result": 21.6, "unit": "min"}, {"measurement": "half-life at 400 μM", "setting": "ALP; alkaline phosphatase (ALP) in PBS, half-life of dephosphorylation, 400 μM, 0.1 U/mL ALP", "result": 122, "unit": "min"}, {"measurement": "half-life at 400 μM", "setting": "ALP; alkaline phosphatase (ALP) in PBS, half-life of dephosphorylation, 400 μM, 0.5 U/mL ALP", "result": 30.6, "unit": "min"}, {"measurement": "cytotoxicity towards HEK293 cells", "setting": "HEK293 cells", "result": "innocuous"}]}]}
